Values of other authors in US20250195565A1 (Fempharma Europe, LLC, priority 2018, published 2025).

Tested on: human vaginal smooth muscle cells
Conditions: zinc at a tissue level of 20 μM

For `[Zn]` [zinc], the “effect on production of extracellular components (collagen, elastin) by the muscle cells” value is listed as “beneficial effect”.
